Data on 24 compounds can be found in patent EP1383793B1 (priority 2000, dated 2001).

Residues, ends and D or L forms follow the SMILES beside them. No end group written: not given here.

For this assay, the system named is adipocytes. As to the kind of experiment: 3H-glucose uptake into adipocytes (fat cell assay, FFC). Set-up: key to FFC: 0 is no effect; + is agonist; - is antagonist. It counts as cell-based, Mouse.

Regarding `CC(C)C[C@H](NC(=O)[C@H](CCC(=O)O)NC(=O)[C@H](C)NC(=O)[C@@H](NC(=O)[C@H](Cc1ccccc1)NC(=O)[C@H](Cc1c[nH]c2ccccc12)NC(=O)[C@H](CC(=O)O)NC(=O)[C@H](Cc1ccc(O)cc1)NC(=O)[C@H](Cc1ccccc1)NC(=O)[C@H](CC(N)=O)NC(=O)[C@H](C)NC(=O)[C@H](CC(N)=O)NC(=O)[C@H](CCCNC(=N)N)NC(=O)[C@H](CCC(N)=O)NC(=O)[C@@H](N)CC(C)C)C(C)C)C(=O)NCC(=O)O` [Clone S238], the FFC stood at 0.
For the compound `CC(C)C[C@H](NC(=O)[C@H](CCC(=O)O)NC(=O)[C@H](C)NC(=O)[C@@H](NC(=O)[C@H](Cc1ccccc1)NC(=O)[C@H](Cc1c[nH]c2ccccc12)NC(=O)[C@H](CC(=O)O)NC(=O)[C@H](Cc1ccc(O)cc1)NC(=O)[C@H](Cc1ccccc1)NC(=O)[C@H](CC(N)=O)NC(=O)[C@H](C)NC(=O)[C@H](CC(N)=O)NC(=O)[C@H](CCCNC(=N)N)NC(=O)[C@H](CCC(N)=O)NC(=O)[C@H](CC(C)C)NC(=O)[C@@H](N)Cc1c[nH]c2ccccc12)C(C)C)C(=O)NCC(=O)O` [Clone S237], the FFC stood at 0.
Take `CC(C)[C@H](NC(=O)[C@H](Cc1ccccc1)NC(=O)[C@H](Cc1c[nH]c2ccccc12)NC(=O)[C@H](CC(=O)O)NC(=O)[C@H](Cc1ccc(O)cc1)NC(=O)[C@H](Cc1ccccc1)NC(=O)[C@H](CC(N)=O)NC(=O)[C@H](CCC(=O)O)NC(=O)[C@H](Cc1c[nH]cn1)NC(=O)[C@@H](N)Cc1ccccc1)C(=O)N[C@@H](CCCNC(=N)N)C(=O)N[C@@H](CCC(N)=O)C(=O)N[C@H](C(=O)N[C@@H](CO)C(=O)N[C@@H](CCCCN)C(=O)N[C@@H](CCCCN)C(=O)N[C@@H](CNC(=O)CON)C(N)=O)C(C)C` [Clone S131]: the FFC entry is reported as “+”.
On to GRVDWLQRNANFYDWFVAE [Clone S249], for which the FFC worked out at 0.
The same measure for `CC[C@H](C)[C@H](NC(=O)[C@H](C)NC(=O)[C@H](CC(N)=O)NC(=O)[C@H](Cc1ccc(O)cc1)NC(=O)[C@H](Cc1ccccc1)NC(=O)CNC(=O)[C@H](CC(=O)O)NC(=O)[C@@H](N)CO)C(=O)N[C@@H](CCC(=O)O)C(=O)N[C@@H](CC(C)C)C(=O)N[C@@H](CC(C)C)C(=O)N[C@@H](CO)C(=O)O` [Clone S118]: “+”; for FHENAYDWFVRQVSKK [Clone S219]: 0; for `CC[C@H](C)[C@@H]1NC(=O)[C@H](CCC(=O)O)NC(=O)[C@@H](NC(=O)[C@H](Cc2c[nH]c3ccccc23)NC(=O)[C@@H](NC(=O)[C@H](Cc2c[nH]c3ccccc23)NC(=O)[C@H](C)NC(=O)[C@H](CCCNC(=N)N)NC(=O)[C@H](CCC(=O)O)NC(=O)[C@H](CCC(N)=O)NC(=O)[C@H](CCC(=O)O)NC(=O)[C@H](CC(C)C)NC(=O)[C@@H](N)Cc2c[nH]c3ccccc23)[C@@H](C)CC)CSSC[C@@H](C(=O)N[C@@H](CCCNC(=N)N)C(=O)N[C@@H](C)C(N)=O)NC(=O)CNC(=O)[C@H](CO)NC(=O)CNC(=O)[C@H](CCC(N)=O)NC1=O` [Clone S263] (HELM PEPTIDE1{W.L.E.Q.E.R.A.W.I.W.C.E.I.Q.G.S.G.C.R.A.[am]}$PEPTIDE1,PEPTIDE1,11:R3-18:R3$$$V2.0; N-terminus assumed; bridges inferred): 0.
The same measure for `CC(C)[C@H](NC(=O)[C@H](Cc1ccccc1)NC(=O)[C@H](Cc1c[nH]c2ccccc12)NC(=O)[C@H](CC(=O)O)NC(=O)[C@H](Cc1ccc(O)cc1)NC(=O)[C@H](Cc1ccccc1)NC(=O)[C@H](CC(N)=O)NC(=O)[C@H](CCC(=O)O)NC(=O)[C@H](Cc1c[nH]cn1)NC(=O)[C@@H](N)Cc1ccccc1)C(=O)N[C@@H](CCCNC(=N)N)C(=O)N[C@@H](CCC(N)=O)C(=O)N[C@H](C(=O)N[C@@H](CO)C(=O)N[C@@H](CCCCN)C(=O)N[C@@H](CCCCN)C(=O)NCC[C@H](NC(=O)[C@H](CCCCN)NC(=O)[C@H](CCCCN)NC(=O)[C@H](CO)NC(=O)[C@@H](NC(=O)[C@H](CCC(N)=O)NC(=O)[C@H](CCCNC(=N)N)NC(=O)[C@@H](NC(=O)[C@H](Cc1ccccc1)NC(=O)[C@H](Cc1c[nH]c2ccccc12)NC(=O)[C@H](CC(=O)O)NC(=O)[C@H](Cc1ccc(O)cc1)NC(=O)[C@H](Cc1ccccc1)NC(=O)[C@H](CC(N)=O)NC(=O)[C@H](CCC(=O)O)NC(=O)[C@H](Cc1c[nH]cn1)NC(=O)[C@@H](N)Cc1ccccc1)C(C)C)C(C)C)C(N)=O)C(C)C` [Clone S152]: “+”; for `CC(C)[C@H](NC(=O)[C@H](Cc1ccccc1)NC(=O)[C@H](Cc1c[nH]c2ccccc12)NC(=O)CNC(=O)[C@H](Cc1ccc(O)cc1)NC(=O)[C@H](Cc1ccccc1)NC(=O)[C@H](CC(N)=O)NC(=O)[C@H](CCC(=O)O)NC(=O)[C@@H](N)Cc1c[nH]cn1)C(=O)N[C@@H](CCCNC(=N)N)C(=O)N[C@@H](CCC(N)=O)C(=O)N[C@H](C(=O)N[C@@H](CO)C(=O)N[C@@H](CCCCN)C(=O)N[C@@H](CCCCN)C(=O)O)C(C)C` [Clone S137]: 0; for HPSTNQMLMKLFK [Clone S123]: 0.
With FHENFYDWFVRQVSK [Clone S158] the entry was “+”; with SSNFYQALMLLS [Clone S129], 0; with HPPLSELKLFLIKK [Clone S124], 0.
As for EFHENFYDWFVRQVSEE [Clone S115], the FFC result was “+”.
The same measure for FQSLLEELVWGAPLFRYGTG [Clone S224]: 0.
Consider FHENFADWFVRQVSKK [Clone S220], for which the FFC is 0.
HPTSKEIYAKLLK [Clone S122]: the FFC is on record as 0.
Regarding `CC(C)C[C@H](NC(=O)[C@H](CCC(=O)O)NC(=O)[C@H](C)NC(=O)[C@@H](NC(=O)[C@H](Cc1ccccc1)NC(=O)[C@H](Cc1c[nH]c2ccccc12)NC(=O)[C@H](CC(=O)O)NC(=O)[C@H](Cc1ccc(O)cc1)NC(=O)[C@H](Cc1ccccc1)NC(=O)[C@H](CC(N)=O)NC(=O)[C@H](C)NC(=O)[C@H](CC(N)=O)NC(=O)[C@H](CCCNC(=N)N)NC(=O)[C@@H](N)CCC(N)=O)C(C)C)C(=O)NCC(=O)O` [Clone S239], the FFC amounted to 0.
With `CC(C)C[C@@H]1NC(=O)[C@H](CO)NC(=O)[C@H](C)NC(=O)CNC(=O)CNC(=O)[C@H](Cc2ccccc2)NC(=O)[C@H](CC(C)C)NC(=O)[C@H](CCC(=O)O)NC(=O)[C@H](CCC(N)=O)NC(=O)[C@H](CC(C)C)NC(=O)[C@H](Cc2ccccc2)NC(=O)[C@@H](NC(=O)[C@H](CC(C)C)NC(=O)[C@@H]2CCCN2)CSSC[C@@H](C(=O)N[C@@H](CO)C(=O)NCC(N)=O)NC(=O)[C@H](Cc2ccc(O)cc2)NC(=O)CNC(=O)CNC1=O` [Clone S262] (HELM PEPTIDE1{P.L.C.F.L.Q.E.L.F.G.G.A.S.L.G.G.Y.C.S.G.[am]}$PEPTIDE1,PEPTIDE1,3:R3-18:R3$$$V2.0; N-terminus assumed; bridges inferred) the figure was 0; with GRVDWLQRNANFYDWFVA [Clone S250], 0; with NSFYEALRMLSSK [Clone S121], 0.
The same measure for `CC(C)C[C@H](NC(=O)CNC(=O)[C@H](CCC(N)=O)NC(=O)[C@H](Cc1ccccc1)NC(=O)[C@H](Cc1ccc(O)cc1)NC(=O)[C@H](CO)NC(=O)[C@H](Cc1ccc(O)cc1)NC(=O)[C@H](Cc1ccccc1)NC(=O)[C@H](CC(=O)O)NC(=O)[C@H](CO)NC(=O)[C@@H](N)Cc1c[nH]c2ccccc12)C(=O)N[C@@H](CC(=O)O)C(=O)O` [Clone S127]: 0.
With HDPFYSMMKSLLK [Clone S120] the figure was 0.
Consider HETFYSMIRSLAK [Clone S117], for which the FFC is on record as 0.
